Test results taken from paper PMC10518257 (Nature Cancer, 2023).
“And” between values parts separate entries of the source, which are not always exact repeats. Identical values can stand only once.

Experiments:
recombinant human RET = molecular target: T1, recombinant human RET (Homo sapiens, UniProt P07949); assay: RET^WT kinase-inhibition assay (LANCE TR-FRET); type: biochemical; settings: 10 μM ATP
T1 construct: purchased Carna Biosciences, Inc (Kobe, Japan)

[1] = molecular target: panel of 255 (vepafestinib) or 256 (all other inhibitors) recombinant kinases; assay: Kinase selectivity profiling at a single concentration (Carna Biosciences); type: biochemical; settings: 26 nM, 256 kinases
KIF5B–RET WT = molecular target: T2, KIF5B–RET WT (Homo sapiens, UniProt P07949); assay: In-cell western assay of RET autophosphorylation; type: cell-based; settings: Jump-In GripTite HEK293, 1 h, phospho-RET (Y905)/RET
T2 construct: Fusion of the RET kinase domain with several N-terminal partners such as kinesin family 5B (KIF5B); KIF5B (N-terminal fusion partner); expressed in transfected cells; host or cells: Jump-In GripTite HEK293 (transient, pJTI Fast-based vector)

KIF5B–RET L730Q = molecular target: T3, KIF5B–RET L730Q (Homo sapiens, UniProt P07949, L730Q); assay: In-cell western assay of RET autophosphorylation; type: cell-based; settings: Jump-In GripTite HEK293 cells, one hour; Mean
T3 construct: Fusion of the RET kinase domain with several N-terminal partners such as kinesin family 5B (KIF5B); KIF5B (N-terminal fusion partner); expressed in transfected cells; host or cells: Jump-In GripTite HEK293 (transient)

KIF5B–RET L730R = molecular target: T4, KIF5B–RET L730R (Homo sapiens, UniProt P07949, L730R); assay: In-cell western assay of RET autophosphorylation; type: cell-based; settings: Jump-In GripTite HEK293 cells, one hour; Mean
T4 construct: Fusion of the RET kinase domain with several N-terminal partners such as kinesin family 5B (KIF5B); KIF5B (N-terminal fusion partner); expressed in transfected cells; host or cells: Jump-In GripTite HEK293 (transient)

KIF5B–RET E732K = molecular target: T5, KIF5B–RET E732K (Homo sapiens, UniProt P07949, E732K); assay: In-cell western assay of RET autophosphorylation; type: cell-based; settings: Jump-In GripTite HEK293 cells, one hour; Mean
T5 construct: Fusion of the RET kinase domain with several N-terminal partners such as kinesin family 5B (KIF5B); KIF5B (N-terminal fusion partner); expressed in transfected cells; host or cells: Jump-In GripTite HEK293 (transient)

KIF5B–RET G736A = molecular target: T6, KIF5B–RET G736A (Homo sapiens, UniProt P07949, G736A); assay: In-cell western assay of RET autophosphorylation; type: cell-based; settings: Jump-In GripTite HEK293 cells, one hour; Mean
T6 construct: Fusion of the RET kinase domain with several N-terminal partners such as kinesin family 5B (KIF5B); KIF5B (N-terminal fusion partner); expressed in transfected cells; host or cells: Jump-In GripTite HEK293 (transient)

KIF5B–RET M759I = molecular target: T7, KIF5B–RET M759I (Homo sapiens, UniProt P07949, M759I); assay: In-cell western assay of RET autophosphorylation; type: cell-based; settings: Jump-In GripTite HEK293 cells, one hour; Mean (TPX-0046: the three replicates)
T7 construct: Fusion of the RET kinase domain with several N-terminal partners such as kinesin family 5B (KIF5B); KIF5B (N-terminal fusion partner); expressed in transfected cells; host or cells: Jump-In GripTite HEK293 (transient)

KIF5B–RET L760Q = molecular target: T8, KIF5B–RET L760Q (Homo sapiens, UniProt P07949, L760Q); assay: In-cell western assay of RET autophosphorylation; type: cell-based; settings: Jump-In GripTite HEK293 cells, one hour; Mean
T8 construct: Fusion of the RET kinase domain with several N-terminal partners such as kinesin family 5B (KIF5B); KIF5B (N-terminal fusion partner); expressed in transfected cells; host or cells: Jump-In GripTite HEK293 (transient)

KIF5B–RET E768Q = molecular target: T9, KIF5B–RET E768Q (Homo sapiens, UniProt P07949, E768Q); assay: In-cell western assay of RET autophosphorylation; type: cell-based; settings: Jump-In GripTite HEK293 cells, one hour; Mean
T9 construct: Fusion of the RET kinase domain with several N-terminal partners such as kinesin family 5B (KIF5B); KIF5B (N-terminal fusion partner); expressed in transfected cells; host or cells: Jump-In GripTite HEK293 (transient)

KIF5B–RET L772M = molecular target: T10, KIF5B–RET L772M (Homo sapiens, UniProt P07949, L772M); assay: In-cell western assay of RET autophosphorylation; type: cell-based; settings: Jump-In GripTite HEK293 cells, one hour; Mean
T10 construct: Fusion of the RET kinase domain with several N-terminal partners such as kinesin family 5B (KIF5B); KIF5B (N-terminal fusion partner); expressed in transfected cells; host or cells: Jump-In GripTite HEK293 (transient)

KIF5B–RET I788N = molecular target: T11, KIF5B–RET I788N (Homo sapiens, UniProt P07949, I788N); assay: In-cell western assay of RET autophosphorylation; type: cell-based; settings: Jump-In GripTite HEK293 cells, one hour; Mean
T11 construct: Fusion of the RET kinase domain with several N-terminal partners such as kinesin family 5B (KIF5B); KIF5B (N-terminal fusion partner); expressed in transfected cells; host or cells: Jump-In GripTite HEK293 (transient)

KIF5B–RET Y806C = molecular target: T12, KIF5B–RET Y806C (Homo sapiens, UniProt P07949, Y806C); assay: In-cell western assay of RET autophosphorylation; type: cell-based; settings: Jump-In GripTite HEK293 cells, one hour; Mean
T12 construct: Fusion of the RET kinase domain with several N-terminal partners such as kinesin family 5B (KIF5B); KIF5B (N-terminal fusion partner); expressed in transfected cells; host or cells: Jump-In GripTite HEK293 (transient)

KIF5B–RET G810A = molecular target: T13, KIF5B–RET G810A (Homo sapiens, UniProt P07949, G810A); assay: In-cell western assay of RET autophosphorylation; type: cell-based; settings: Jump-In GripTite HEK293 cells, one hour; Mean
T13 construct: Fusion of the RET kinase domain with several N-terminal partners such as kinesin family 5B (KIF5B); KIF5B (N-terminal fusion partner); expressed in transfected cells; host or cells: Jump-In GripTite HEK293 (transient)

KIF5B–RET G810C = molecular target: T14, KIF5B–RET G810C (Homo sapiens, UniProt P07949, G810C); assay: In-cell western assay of RET autophosphorylation; type: cell-based; settings: Jump-In GripTite HEK293 cells, one hour; Mean
T14 construct: Fusion of the RET kinase domain with several N-terminal partners such as kinesin family 5B (KIF5B); KIF5B (N-terminal fusion partner); expressed in transfected cells; host or cells: Jump-In GripTite HEK293 (transient)

KIF5B–RET G810D = molecular target: T15, KIF5B–RET G810D (Homo sapiens, UniProt P07949, G810D); assay: In-cell western assay of RET autophosphorylation; type: cell-based; settings: Jump-In GripTite HEK293 cells, one hour; Mean
T15 construct: Fusion of the RET kinase domain with several N-terminal partners such as kinesin family 5B (KIF5B); KIF5B (N-terminal fusion partner); expressed in transfected cells; host or cells: Jump-In GripTite HEK293 (transient)

KIF5B–RET G810S = molecular target: T16, KIF5B–RET G810S (Homo sapiens, UniProt P07949, G810S); assay: In-cell western assay of RET autophosphorylation; type: cell-based; settings: Jump-In GripTite HEK293 cells, one hour; Mean
T16 construct: Fusion of the RET kinase domain with several N-terminal partners such as kinesin family 5B (KIF5B); KIF5B (N-terminal fusion partner); expressed in transfected cells; host or cells: Jump-In GripTite HEK293 (transient)

KIF5B–RET G810R = molecular target: T17, KIF5B–RET G810R (Homo sapiens, UniProt P07949, G810R); assay: In-cell western assay of RET autophosphorylation; type: cell-based; settings: Jump-In GripTite HEK293, 1 h, phospho-RET (Y905)/RET
T17 construct: Fusion of the RET kinase domain with several N-terminal partners such as kinesin family 5B (KIF5B); KIF5B (N-terminal fusion partner); expressed in transfected cells; host or cells: Jump-In GripTite HEK293 (transient)

in vivo = settings: male, BALB/c, mouse, brain and plasma, po, 50 mg/kg, Kp,uu,brain (unbound brain/plasma concentration ratio), male BALB/c mice, 50 mg per kg oral, 0.5 h or 1 h
LUAD-0087AS2 PDX = assay: PDX efficacy study; settings: Fig. 6a LUAD-0087AS2; selpercatinib 30 mg/kg BID; individual animals

T7 sequence (P07949 713-1063 M759I limits assumed): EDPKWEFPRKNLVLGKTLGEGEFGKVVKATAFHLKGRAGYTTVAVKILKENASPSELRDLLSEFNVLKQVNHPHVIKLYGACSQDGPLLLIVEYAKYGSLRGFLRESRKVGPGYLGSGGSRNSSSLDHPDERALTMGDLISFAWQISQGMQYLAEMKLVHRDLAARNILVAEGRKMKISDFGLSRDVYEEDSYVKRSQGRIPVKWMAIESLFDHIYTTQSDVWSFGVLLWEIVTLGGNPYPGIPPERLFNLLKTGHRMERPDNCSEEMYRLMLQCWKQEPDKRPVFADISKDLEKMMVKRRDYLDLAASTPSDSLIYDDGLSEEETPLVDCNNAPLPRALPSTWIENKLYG
T5 sequence (P07949 713-1063 E732K limits assumed): as the sequence (P07949 713-1063 M759I limits assumed) above, with E20K, I47M counted along it
T9 sequence (P07949 713-1063 E768Q limits assumed): as the sequence (P07949 713-1063 M759I limits assumed) above, with I47M, E56Q counted along it
T8 sequence (P07949 713-1063 L760Q limits assumed): as the sequence (P07949 713-1063 M759I limits assumed) above, with I47M, L48Q counted along it
T3 sequence (P07949 713-1063 L730Q limits assumed): as the sequence (P07949 713-1063 M759I limits assumed) above, with L18Q, I47M counted along it
T17 sequence (P07949 713-1063 G810R limits assumed): as the sequence (P07949 713-1063 M759I limits assumed) above, with I47M, G98R counted along it
T13 sequence (P07949 713-1063 G810A limits assumed): as the sequence (P07949 713-1063 M759I limits assumed) above, with I47M, G98A counted along it
T12 sequence (P07949 713-1063 Y806C limits assumed): as the sequence (P07949 713-1063 M759I limits assumed) above, with I47M, Y94C counted along it
T2 sequence (P07949 713-1063 limits assumed): as the sequence (P07949 713-1063 M759I limits assumed) above, with I47M counted along it
T16 sequence (P07949 713-1063 G810S limits assumed): as the sequence (P07949 713-1063 M759I limits assumed) above, with I47M, G98S counted along it
T1 sequence (P07949 29-1114): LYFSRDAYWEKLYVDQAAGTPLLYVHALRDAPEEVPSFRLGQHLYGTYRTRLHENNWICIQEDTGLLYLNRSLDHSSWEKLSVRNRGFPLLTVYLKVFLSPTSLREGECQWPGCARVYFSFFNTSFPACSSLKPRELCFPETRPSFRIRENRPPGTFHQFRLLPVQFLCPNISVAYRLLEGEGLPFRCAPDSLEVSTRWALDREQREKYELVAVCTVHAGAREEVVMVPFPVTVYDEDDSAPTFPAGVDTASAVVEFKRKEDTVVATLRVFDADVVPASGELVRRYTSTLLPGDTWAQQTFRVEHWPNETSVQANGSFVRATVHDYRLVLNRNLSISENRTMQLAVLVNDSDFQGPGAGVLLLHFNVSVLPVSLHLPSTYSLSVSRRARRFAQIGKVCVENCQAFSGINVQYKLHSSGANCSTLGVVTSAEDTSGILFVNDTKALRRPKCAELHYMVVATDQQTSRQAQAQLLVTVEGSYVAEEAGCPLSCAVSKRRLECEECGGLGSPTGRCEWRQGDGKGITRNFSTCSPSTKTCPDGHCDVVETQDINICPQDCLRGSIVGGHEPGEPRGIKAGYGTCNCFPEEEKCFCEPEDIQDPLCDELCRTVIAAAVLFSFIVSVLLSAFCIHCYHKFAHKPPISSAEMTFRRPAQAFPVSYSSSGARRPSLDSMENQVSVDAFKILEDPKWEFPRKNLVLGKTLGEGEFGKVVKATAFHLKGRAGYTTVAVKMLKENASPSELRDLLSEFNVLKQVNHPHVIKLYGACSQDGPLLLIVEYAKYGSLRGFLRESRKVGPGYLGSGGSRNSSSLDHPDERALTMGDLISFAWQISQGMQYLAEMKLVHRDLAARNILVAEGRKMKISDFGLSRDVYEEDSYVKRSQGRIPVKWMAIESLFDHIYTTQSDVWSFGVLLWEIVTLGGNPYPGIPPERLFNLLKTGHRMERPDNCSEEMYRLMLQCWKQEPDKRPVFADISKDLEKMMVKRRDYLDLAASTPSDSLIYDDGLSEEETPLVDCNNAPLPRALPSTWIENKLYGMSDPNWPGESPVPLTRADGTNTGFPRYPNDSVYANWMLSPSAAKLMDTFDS
T6 sequence (P07949 713-1063 G736A limits assumed): as the sequence (P07949 713-1063 M759I limits assumed) above, with G24A, I47M counted along it
T10 sequence (P07949 713-1063 L772M limits assumed): as the sequence (P07949 713-1063 M759I limits assumed) above, with I47M, L60M counted along it
T11 sequence (P07949 713-1063 I788N limits assumed): as the sequence (P07949 713-1063 M759I limits assumed) above, with I47M, I76N counted along it
T4 sequence (P07949 713-1063 L730R limits assumed): as the sequence (P07949 713-1063 M759I limits assumed) above, with L18R, I47M counted along it
T14 sequence (P07949 713-1063 G810C limits assumed): as the sequence (P07949 713-1063 M759I limits assumed) above, with I47M, G98C counted along it
T15 sequence (P07949 713-1063 G810D limits assumed): as the sequence (P07949 713-1063 M759I limits assumed) above, with I47M, G98D counted along it

C[C@H]1CNC(=O)c2cnn3cc4c(nc23)N(Cc2cc(F)cnc2O1)[C@@H]1CCC[C@@H]1O4 [TPX-0046]
IC50 (recombinant human RET): 0.26 ± 0.02 nM | kinases inhibited by >50% [1]: 39 | IC50 (KIF5B–RET WT): 21.9 nM | IC50 (KIF5B–RET L730Q): 16.6 nM | IC50 (KIF5B–RET L730R): 4.49 nM | IC50 (KIF5B–RET E732K): 14.7 nM | IC50 (KIF5B–RET G736A): 3.21 nM | IC50 (KIF5B–RET M759I): < 1 nM and 1.2 nM and 1.72 nM | IC50 (KIF5B–RET L760Q): 5.35 nM | IC50 (KIF5B–RET E768Q): 4.05 nM | IC50 (KIF5B–RET L772M): 2.69 nM | IC50 (KIF5B–RET I788N): 50.6 nM | IC50 (KIF5B–RET Y806C): 50 nM | IC50 (KIF5B–RET G810A): 6.53 nM | IC50 (KIF5B–RET G810C): 36.1 nM | IC50 (KIF5B–RET G810D): 57.9 nM | IC50 (KIF5B–RET G810S): 5.87 nM | IC50 (KIF5B–RET G810R): 108 nM | Kp uu (in vivo): 0.077

COc1ccc(CN2C3CC2CN(c2ccc(-c4cc(OCC(C)(C)O)cn5ncc(C#N)c45)cn2)C3)cn1 [Sepercatinib]
Change in tumor volume (% from base line) (LUAD-0087AS2 PDX): -13.818% and -42.542% and -38.123% and -35.767% and -33.072%
